Test results from ChEMBL document CHEMBL3856234, “Development of Multifunctional Pyrimidinylthiourea Derivatives as Potential Anti-Alzheimer Agents” (J Med Chem, 2016).
pIC50: −log10 of the molar value. ≈ marks a conversion by molar mass, not a printed value. Calls of active or inactive are those of the source. The rule behind the calls is not given here.

Tests used:
Acetylcholinesterase = molecular target: T1, Acetylcholinesterase (Rattus norvegicus, UniProt P37136); test: Inhibition of rat cortex AChE using acetylthiocholine iodide as substrate measured after 20 mins by Ellman's method
T1 sequence (P37136 whole entry): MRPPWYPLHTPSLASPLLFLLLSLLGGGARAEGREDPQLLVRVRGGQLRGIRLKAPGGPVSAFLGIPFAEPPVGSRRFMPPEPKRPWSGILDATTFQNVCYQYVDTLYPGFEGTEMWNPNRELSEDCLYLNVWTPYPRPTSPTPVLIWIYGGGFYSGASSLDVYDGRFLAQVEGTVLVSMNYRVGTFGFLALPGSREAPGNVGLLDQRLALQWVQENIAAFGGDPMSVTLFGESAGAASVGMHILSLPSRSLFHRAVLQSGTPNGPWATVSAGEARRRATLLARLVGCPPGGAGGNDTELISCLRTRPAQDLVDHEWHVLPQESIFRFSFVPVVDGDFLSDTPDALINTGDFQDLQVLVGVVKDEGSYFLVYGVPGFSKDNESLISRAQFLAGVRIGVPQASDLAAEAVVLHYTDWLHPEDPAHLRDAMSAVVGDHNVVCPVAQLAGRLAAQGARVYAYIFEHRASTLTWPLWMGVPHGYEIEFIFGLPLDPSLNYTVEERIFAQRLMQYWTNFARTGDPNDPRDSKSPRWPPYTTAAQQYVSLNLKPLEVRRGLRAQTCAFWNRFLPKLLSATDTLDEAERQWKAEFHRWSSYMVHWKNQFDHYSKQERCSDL

[1] = molecular target: T2, Acetylcholinesterase (Rattus norvegicus) (UniProt P37136); test: Inhibition of rat cortex AChE at 40 uM using acetylthiocholine iodide as substrate measured after 20 mins by Ellman's method relative to control
T2 sequence (whole entry): T1 sequence (P37136 whole entry)

[2] = Inhibition of rat serum BuChE using butyrylthiocholine as substrate measured after 20 mins by Ellman's method
[3] = Permeability of the compound in PBS/EtOH (7:3) buffer measured after 10 hrs by PAMPA assay; type: ADME; settings: read-out: Peff
Rattus norvegicus [4] = species: Rattus norvegicus; test: Selectivity index, ratio of IC50 for rat serum BuChE to IC50 for rat cortex AChE
[5] = Antioxidant activity assessed as trolox equivalent of AAPH radical scavenging activity preincubated for 10 mins followed by AAPH challenge measured every min for 180 mins by ORAC-FL assay; type: functional
Rattus norvegicus [6] = species: Rattus norvegicus; test: Inhibition of rat serum BuChE at 40 uM using butyrylthiocholine as substrate measured after 20 mins by Ellman's method relative to control
[7] = Inhibition of cupric ion-induced aggregation of amyloid beta (1 to 42) (unknown origin) at compound:amyloid beta (1 to 42):Cu2+ ratio of 2:1:1 measured after 24 hrs by TEM analysis
[8] = Cytotoxicity against human SH-SY5Y cells assessed as reduction in cell viability at 10 and 30 uM measured after 24 hrs by MTT assay; type: toxicity, cell-based
[9] = Cytotoxicity against human SH-SY5Y cells assessed as reduction in cell viability at 100 uM measured after 24 hrs by MTT assay; type: toxicity, cell-based
[10] = Metal chelating activity assessed as Cu2+-compound complex formation at 40 uM measured after 1 hr by UV-vis spectroscopic analysis; type: physicochemical
[11] = Metal chelating activity assessed as Fe3+-compound complex formation at 40 uM measured after 1 hr by UV-vis spectroscopic analysis; type: physicochemical
[12] = Metal chelating activity assessed as Fe2+-compound complex formation at 40 uM measured after 1 hr by UV-vis spectroscopic analysis; type: physicochemical
[13] = Metal chelating activity assessed as Zn2+-compound complex formation at 40 uM measured after 1 hr by UV-vis spectroscopic analysis; type: physicochemical
[14] = Solubility of the compound in water measured after 24 hrs by HPLC analysis; type: physicochemical
[15] = Cytotoxicity against human SH-SY5Y cells assessed as reduction in cell viability after 24 hrs in presence of Cu2+ ion by MTT assay; type: toxicity, cell-based

SMILES: CCNC(=S)Nc1nccc(-n2ccnc2)n1
- pIC50 (Acetylcholinesterase): 5.07
- inhibition [1]: 64.9%

SMILES: Nc1cc(-n2cccn2)ncn1
- inhibition [1]: 18.9%

SMILES: CCOc1cc(-n2cccn2)ncn1
- inhibition [1]: 11.8%

SMILES: CCNC(=S)Nc1cc(-n2cnc(Br)c2)ncn1
- pIC50 (Acetylcholinesterase): 6.01

SMILES: CCNC(=S)Nc1cc(-n2ccnc2C)ncn1
- pIC50 (Acetylcholinesterase): 5.21

SMILES: CCNC(=S)Nc1cc(-n2cnc(CN3CCCCC3)c2)ncn1
- pIC50 [2]: 4.74
- Papp at 10 h [3]: 5 ×10⁻⁶ cm/s
- pIC50 (Acetylcholinesterase): 6.95
- Ratio IC50 (Rattus norvegicus [4]): 164
- Activity (umolequiv/umol) [5]: 1.27

SMILES: CCNC(=S)Nc1ncnc(-n2ccnc2)c1C
- pIC50 (Acetylcholinesterase): < 4.40
- inhibition [1]: 45.9%

SMILES: CCNC(=S)Nc1ccnc(-n2ccnc2)n1
- pIC50 (Acetylcholinesterase): < 4.40
- inhibition [1]: 46.6%

SMILES: CCNc1cc(-n2cccn2)ncn1
- inhibition [1]: 32.1%

SMILES: CCNC(=S)Nc1cc(-n2cnc3ccccc32)ncn1
- pIC50 (Acetylcholinesterase): 5.11
- inhibition [1]: 66.2%

SMILES: CCNC(=S)Nc1cc(N2CCN(C)CC2)ncn1
- pIC50 (Acetylcholinesterase): 5.49
- inhibition [1]: 70.1%

SMILES: CCNC(=S)Nc1cc(-n2cnc(CO)c2)ncn1
- pIC50 (Acetylcholinesterase): 6.00

SMILES: CCNC(=S)Nc1cc(-n2cnc(CN3CCN(C)CC3)c2)ncn1
- inhibition (Rattus norvegicus [6]): 10.8%
- pIC50 [2]: < 4.40
- Papp at 10 h [3]: 1.95 ×10⁻⁶ cm/s
- pIC50 (Acetylcholinesterase): 6.99
- Ratio IC50 (Rattus norvegicus [4]): > 388
- Activity (umolequiv/umol) [5]: 1.23

SMILES: CNCCCN1c2ccccc2CCc2ccccc21 [DESIPRAMINE]
- Papp at 10 h [3]: 16.6 ×10⁻⁶ cm/s

SMILES: CCNC(=S)Nc1cc(-n2cnc(CNC)c2)ncn1
- inhibition (Rattus norvegicus [6]): 27.3%
- pIC50 [2]: < 4.40
- pIC50 (Acetylcholinesterase): 6.60
- Ratio IC50 (Rattus norvegicus [4]): > 159
- Activity (umolequiv/umol) [5]: 1.32

SMILES: CCNC(=S)Nc1cc(-n2cnc(CNC3CCCCC3)c2)ncn1
- pIC50 (Acetylcholinesterase): 6.37

SMILES: S=C(Nc1cc(-n2cccn2)ncn1)NC1CCCCC1
- inhibition [1]: 11.2%

SMILES: CC(C)NC(=S)Nc1cc(-n2cccn2)ncn1
- inhibition [1]: 36.2%

SMILES: CCNC(=S)Nc1cc(-n2cnc(I)c2)ncn1
- pIC50 (Acetylcholinesterase): 6.20

SMILES: Oc1c(I)cc(Cl)c2cccnc12
- inhibition [7]: Active

SMILES: CCNC(=S)Nc1cc(-n2ccnc2CC)ncn1
- pIC50 (Acetylcholinesterase): 5.17

SMILES: COc1cc2c(cc1OC)C(=O)C(CC1CCN(Cc3ccccc3)CC1)C2 (configuration not stated) [DONEPEZIL]
- Activity [8]: Non-Toxic
- Activity [9]: Toxic

SMILES: CCNC(=S)Nc1cc(-n2cnc(C(F)(F)F)c2)ncn1
- pIC50 (Acetylcholinesterase): 6.02

SMILES: CCNC(=S)Nc1cc(NCc2ccccc2)ncn1
- pIC50 (Acetylcholinesterase): < 4.40
- inhibition [1]: 10.9%

SMILES: CCNC(=S)Nc1cc(-n2cnc(CNCc3ccccc3)c2)ncn1
- inhibition (Rattus norvegicus [6]): 48%
- pIC50 [2]: < 4.40
- pIC50 (Acetylcholinesterase): 6.56
- Ratio IC50 (Rattus norvegicus [4]): > 146
- Activity (umolequiv/umol) [5]: 1.3

SMILES: CCNC(=S)Nc1nc2c(c(-n3ccnc3)n1)CCC2
- pIC50 (Acetylcholinesterase): < 4.40
- inhibition [1]: 24.4%

SMILES: CCNC(=S)Nc1cc(-n2cnc(CN(C)Cc3ccccc3)c2)ncn1
- Ratio IC50 (Rattus norvegicus [4]): 84
- Activity (umolequiv/umol) [5]: 1.25

SMILES: CCNC(=S)Nc1cc(-n2ccnc2)ncn1
- pIC50 (Acetylcholinesterase): 5.80
- inhibition [1]: 72.8%

SMILES: c1cc(-n2cnc(CN3CCCC3)c2)ncn1
- Activity [10]: Active
- Activity [11]: Active
- Activity [12]: Active
- Activity [13]: Active
- Activity (umolequiv/umol) [5]: -0.01

SMILES: CCNC(=S)Nc1cc(-n2cnc(CN3CCCC3)c2)ncn1.Cl
- solubility at 24 h [14]: 19500 µg/mL

SMILES: CCNC(=S)Nc1cc(-n2cnc(CN3CCCC3)c2)ncn1
- Activity [10]: Active
- pIC50 [2]: < 4.40
- Papp at 10 h [3]: 1.15 ×10⁻⁶ cm/s
- Activity [15]: Non-Toxic
- pIC50 (Acetylcholinesterase): 7.17
- Activity [11]: Active
- Activity [8]: Non-Toxic
- Activity [9]: Toxic
- solubility at 24 h [14]: 340 µg/mL (≈ 1030 µM)
- Activity [12]: Active
- Activity [13]: Active
